Results published in patent US11149055B2, “Crystal form of lanosterol prodrug compound and application thereof” (GUANGZHOU OCUSUN OPHTHALMIC BIOTECHNOLOGY CO., LTD., priority 2018, dated 2021).
Read-outs that look alike come from different tables or passages of the source.

Experiments:
[1] = tested on: sodium selenite-induced neonatal New Zealand rabbit cataract model; test: Lens transparency test in vitro, sodium selenite-induced cataract model; type: in vivo; conditions: after 42 days of administration, left eye as self-control
Description: (§1) P7 days old neonatal New Zealand rabbits, normal grade, and 5 young rabbits per litter were breast-fed with a mother rabbit.
(§2) The experimental young rabbits were randomly divided into 5 groups with 5 rabbits per group.
(§3) 2) Model control group (MC): in the P10 day, the young rabbits were injected subcutaneously with sodium selenite solution (in physiological saline) at a dose of 20 μmol/kg body weight, and after the P15 day, drug-free blank eyes drops were dripped into the right eye 3 times every day for 42 days.
as §3, with “3) Positive” for “2) Model”, “(PC):” for “(MC):”, “Kary Uni eye” for “drug-free blank eyes”, “drops (Santen Pharmaceutical Co., Ltd in Japan)” for “drops”
as §3, with “4) Lanosterol eye drops treatment” for “2) Model control”, “(LT):” for “(MC):”, “lanosterol eye” for “drug-free blank eyes”, “days. […]” for “days.”

[2] = tested on: ultraviolet-induced New Zealand rabbit cataract model; test: Slit lamp observation, ultraviolet-induced cataract model; type: in vivo; conditions: ultraviolet model (313 nm UV 24 hours); eye drops right eye 3 times every day for 42 days
Description: (§4) Adult New Zealand rabbits 2.0-2.5 kg, normal grade, male and female, a total of 25.
(§5) The experimental rabbits were randomly divided into 5 groups with 5 rabbits per group.
(§6) 2) Model control group (MC): 313 nm UV irradiation for 24 hours to make model, then drug-free blank eye drops were dripped into the right eye 3 times every day for 42 days.
(§7) 3) Positive control group (PC): 313 nm UV irradiation for 24 hours to make model, then Kary Uni eye drops (Santen Pharmaceutical Co., Ltd in Japan) were dripped into the right eye 3 times every day for 42 days.
(§8) 4) Lanosterol eye drops treatment group (LT): 313 nm UV irradiation for 24 hours to make model, then lanosterol eye drops were dripped into the right eye 3 times every day for 42 days.
(§9) 5) Lanosterol prodrug 026 eye drops treatment group (026): 313 nm UV irradiation for 24 hours to make model, then the lanosterol prodrug 026 eye drops were dripped into the right eye 3 times every day for 42 days.

[3] = tested on: ultraviolet-induced New Zealand rabbit cataract model; test: Lens transparency test in vitro, ultraviolet-induced cataract model; type: in vivo; conditions: after 42 days of administration, left eye as self-control
Description: as §4, §5, §6, §7, §8, §9
2) Lens transparency test in vitro: on the last day, the animal's eyeball was dissected, the lens containing the capsule was completely separated, and the lens was placed on a grid paper (2.12×2.12 mm). The photographs show the sharpness of the grid photographed through the lens.

[4] = tested on: lens glutathione peroxidase (GSH-PX) activity; test: Lens glutathione peroxidase (GSH-PX) activity assay, ultraviolet-induced cataract model; type: in vivo, New Zealand rabbit; conditions: after 42 days of administration
Description: as §4, §5, §6, §7, §8, §9
(§10) 3) Glutathione peroxidase (GSH-PX) activity assay: GSH-PX activity of the isolated rabbit lens in each group was determined by the method provided in the specification of GSH-PX activity detection kit (Nanjing Jiancheng Bioengineering Institute). The experimental data were analyzed by One-Way ANOVA with SPSS statistical software. The LSD method was used to compare the groups, and the statistical difference level was p<0.05.

[5] = Penetration of ocular drugs in the body and conversion to lanosterol (aqueous humor concentration after eye drops); type: in vivo, New Zealand white rabbit; conditions: for AUC: New Zealand white, rabbit; for Penetration into the aqueous humor: from the cornea or through other routes
Description: In this study, New Zealand white rabbits (body weight was more than 2 kg, aged more than 12 weeks) were used as experimental animals. Each compound was studied in two New Zealand white rabbits. Each rabbit was instilled with 50 μL of eye drops in each eye, three eyes were used to collect aqueous humor samples and one eye was used as a backup. The formula of the eye drops was 1.2% hydroxypropyl methylcellulose (E5 size), 20.5% poloxamer (P407 size), 1.6% poloxamer (P188 size), the concentration of the compound was 5 mM, and the eye drops were homogeneous suspensions. After the eye drops were dripped into the rabbit's eyes, the anterior aqueous humor was collected 0.5, 2, 4 and 6 hours after administration. The volume of each sample was not more than 50 μL. Each animal was given mild anesthesia before collecting samples. Three samples were collected at each time point. The collected aqueous humor samples were stored in dry ice immediately after collection or stored in a refrigerator at −80±10° C. After the sample collection, the animals were euthanized. The concentration of the compound in each sample was determined using a triple quadrupole mass spectrometer (API 4000). Tables 3 and 4 show the DMPK determination conditions in vivo; Tables 5 and 6 show the drug concentration in the aqueous humor after compound lanosterol (parent drug) and the prodrug compound were dripped into eyes ([…]).

[6] = tested on: lens glutathione peroxidase (GSH-PX) activity; test: Lens glutathione peroxidase (GSH-PX) activity assay, sodium selenite-induced cataract model; type: in vivo, New Zealand rabbit; conditions: after 42 days of administration
Description: as §1, §2, §3
as §3, with “3) Positive” for “2) Model”, “(PC):” for “(MC):”, “Kary Uni eye” for “drug-free blank eyes”, “drops (Santen Pharmaceutical Co., Ltd in Japan)” for “drops”
as §3, with “4) Lanosterol eye drops treatment” for “2) Model control”, “(LT):” for “(MC):”, “lanosterol eye” for “drug-free blank eyes”
as §3, with “5) Lanosterol prodrug 026 eye drops treatment” for “2) Model control”, “(026, the compound of formula (I)):” for “(MC):”, “lanosterol prodrug 026 eye” for “drug-free blank eyes”
as §10, with “was” for “were”

[7] = tested on: sodium selenite-induced neonatal New Zealand rabbit cataract model; test: Slit lamp observation, sodium selenite-induced cataract model; type: in vivo; conditions: eye drops right eye 3 times every day for 42 days
Description: as §1, §2, §3
as §3, with “3) Positive” for “2) Model”, “(PC):” for “(MC):”, “Kary Uni eye” for “drug-free blank eyes”, “drops (Santen Pharmaceutical Co., Ltd in Japan)” for “drops”
as §3, with “4) Lanosterol eye drops treatment” for “2) Model control”, “(LT):” for “(MC):”, “lanosterol eye” for “drug-free blank eyes”, “days. […]” for “days.”

[8] = Pre-stability experiment (influencing factors: high temperature, high humidity, light); type: physicochemical; conditions: 60° C. open; relative humidity 92.5% open; light 1 ICH; up to 10 days
Description: The crystal form A of the compound of formula (I) was placed under the following 3 conditions and tested for appearance, XRPD, content and related substances at different time points.
10 mg of the crystal form A of the compound of formula (I) was accurately weighted and placed in a sample bottle, and then spread to form a thin layer. The samples were placed under 60° C., 92.5% RH, the mouth of the bottle was directly wrapped with aluminum foil which was punctured to get some small holes to ensure that the sample can fully contact the ambient air. The samples were placed respectively in a dry box and a glass jar containing saturated potassium nitrate solution. The illuminated sample (open, not covered with aluminum foil) and the illuminated control sample (open, the sample bottle was entirely covered with aluminum foil) were placed in the light box. 2 parts of the sample were weighted at each time point as the formal test sample. In addition, about 5 mg of the crystal form A of the compound of formula (I) was weighted for XRPD testing; the sample bottle was wrapped with aluminum foil which was punctured to get some small holes; the samples were also placed in the corresponding drying box and the glass jar containing saturated potassium nitrate solution. […]

[9] = Hygroscopicity study by Dynamic Vapor Sorption (DVS); type: physicochemical; conditions: 25° C. and 80% RH
Description: Dynamic Vapor Sorption (DVS)
Detection method: samples (10 mg to 20 mg) were placed in a DVS sample tray for testing.
Equilibrium: dm/dt: 0.01%/min: (Shortest: 10 min, longest: 180 min)
RH (%) gradient for testing: 10%
RH (%) gradient range for testing: 0% to 90% to 0%
The hygroscopicity was evaluated using the following scales:
SMS DVS Advantage Dynamic Vapor Sorption System
10 to 15 mg of the crystal form A of the compound of formula (I) was placed in the DVS sample tray for testing.

Row | Compound | Lens transparency in vitro of administered right eye [1] | Cataract symptoms by slit lamp observation, after vs before administration [2] | Lens transparency in vitro of administered right eye [3] | Effect on lens GSH-PX activity compared with the other treatments [4] | Lens GSH-PX activity vs MC group [4] | Average concentration of the compound of formula (I) in the aqueous humor ([5]; 250 nmol the compound of formula (I) dripped into each eye, analyte prodrug, 0.5 hour) | Average concentration of the compound of formula (I) in the aqueous humor ([5]; 250 nmol the compound of formula (I) dripped into each eye, analyte prodrug, 2 hour) | Average concentration of the compound of formula (I) in the aqueous humor ([5]; 250 nmol the compound of formula (I) dripped into each eye, analyte prodrug, 4 hour) | Average concentration of the compound of formula (I) in the aqueous humor ([5]; 250 nmol the compound of formula (I) dripped into each eye, analyte prodrug, 6 hour) | AUC ([5]; in vivo, 250 nmol the compound of formula (I) dripped into each eye, analyte prodrug, read-out: AUC (exposure amount) of the compound of formula (I) in the aqueous humor) | Conversion into the parent drug lanosterol ([5]; during the infiltration process) | Lanosterol concentration and exposure in the aqueous humor compared with lanosterol eye drops ([5]; eye drops) | Penetration into the aqueous humor ([5]; eye drops) | Effect on lens GSH-PX activity compared with the other treatments [6] | Lens GSH-PX activity vs MC group [6] | Cataract symptoms by slit lamp observation, after vs before administration [7] | AUC ([5]; aqueous humor, topical, 250 nmol per eye, 250 nmol lanosterol dripped into each eye, read-out: AUC (exposure amount) of lanosterol in the aqueous humor) | Crystal form stability (appearance, XRPD, content, related substances) [8] | Hygroscopic weight gain (ΔW) [9] | Hygroscopicity scale [9]
1 | CC(C)=CCC[C@@H](C)[C@H]1CC[C@@]2(C)C3=C(CC[C@]12C)[C@@]1(C)CC[C@H](OC(=O)c2ccccc2O)C(C)(C)C1CC3 (some centres unmarked) [the compound of formula (I)] | significantly higher than that of the left eye | cataract symptoms were significantly reduced | significantly higher than that of the left eye | better than that of Kary Uni | capable of increasing the GSH-PX activity of the lens | 41.0 nM | 33.3 nM | 25.5 nM | BQL | 0.124 µM·h | capable of converting into the parent drug lanosterol | higher concentration and exposure of lanosterol in the aqueous humor | capable of penetrating into the aqueous humor | better than that of Kary Uni | capable of increasing the GSH-PX activity of the lens | cataract symptoms were significantly reduced |  |  |  | 
2 | CC(C)=CCC[C@@H](C)[C@H]1CC[C@@]2(C)C3=C(CC[C@]12C)[C@@]1(C)CC[C@H](O)C(C)(C)[C@@H]1CC3 [Lanosterol] | no significant change in lens transparency | no evident change | no significant change in lens transparency | significantly lower than that of 026 and Kary Uni | no statistical difference compared to the MC group |  |  |  |  |  |  |  | capable of penetrating into the aqueous humor | significantly lower than that of 026 and Kary Uni | no statistical difference compared to the MC group | no evident change | 1.78 µM·h |  |  | 
3 | CC(C)=CCC[C@@H](C)[C@H]1CC[C@@]2(C)C3=C(CC[C@]12C)[C@@]1(C)CC[C@H](OC(=O)c2ccccc2O)C(C)(C)C1CC3 (some centres unmarked) |  |  |  |  |  |  |  |  |  |  |  |  |  |  |  |  |  | the crystal form has not changed after the experiment, and its stability is good | 0.747% | slightly hygroscopic
